# Patent US11046651B2, “Piperazine substituted azapine derivatives and uses thereof” (Alairion, Inc., priority 2019, dated 2021)
# Values joined by “and” are separate entries in the source; they are usually repeats but may differ in a detail not shown here. Equal values may be shown once.
# Columns and labels:
# [1] = target: 5-HT2C (Homo sapiens (Human), UniProt P28335); test: 5-HT2C binding assay ([3H]-Mesulergine, HEK293 membranes)
# Procedure: 5-HT2C Binding Assay Protocol
# The testing compounds were diluted with DMSO, starting at 2 mM, with 8-points and 5-fold serial dilutions.
# 1 μL of a compound of the present disclosure the reference compound (Table J) was transferred to an assay plate. […] 1 μL of DMSO was transferred to an assay plate according to the plate map for total binding (High control: HC).
# (§1) Unifilter-96 GF/C filter plates were soaked with 50 μL of 0.3% PEI per well for about 0.5 hours at room temperature. When the binding assays were complete, the reaction mixture was filtered through the GF/C filter plates using Perkin Elmer Filtermate Harvester, and each plate was washed 4 times with cold wash buffer. The filter plates were dried for 1 hour at 50° C. After drying, the bottom of the filter plate wells were sealed using Perkin Elmer Unifilter-96 backing seal tape. 50 μL of Perkin Elmer Microscint 20 cocktail was added. The top of the filter plates were sealed with Perkin Elmer TopSeal-A sealing film.
# (§2) ^3H trapped on filters were counted using Perkin Elmer MicroBeta2 Reader. Inhibition constants were calculated using the following equation:
# [formula] The data was analyzed using Prism 5. The model used was “log(inhibitor) vs. response—Variable slope” to fit the data and calculate IC50. The IC50 was then converted to Ki using the following equation: Ki=IC50/(1+L/Kd), wherein L is the radioligand concentration in the reaction system; Kd is the affinity of radioligand to the receptor.
# [2] = Human clearance and half-life projections (allometric scaling from monkey clearance); settings: for T1/2 (h), projected human half-life: one-compartmental model, T1/2=0.693×(predicted Vd/predicted CL); for CL (mL/min/kg), projected human clearance: single species scaling from monkey clearance
# Procedure: (§3) The biological activity of the compounds of the present disclosure may be determined utilizing projected human clearance (CL) and half-life in humans. An allometric scaling method, using a single species scaling from monkey clearance was used to project clearance. Human volume of distribution (Vd) was projected from animal Vd, adjusted for differences in plasma protein binding and assuming similar unbound Vd across species. Human half-life (T1/2) was calculated based on a one-compartmental model, using a relationship of T1/2=0.693×(predicted Vd/predicted CL).
# as §3, with “An” for “The biological activity of the compounds of the present disclosure may be determined utilizing projected human clearance (CL) and half-life in humans. An”
# [3] = target: H1 (Homo sapiens (Human), UniProt P35367); test: H1 binding assay ([3H]pyrilamine, HEK293 stable cell line membranes)
# Procedure: Example 25. H1 and 5-HT2A Binding Assay Protocol
# (§4) The testing compounds were diluted with DMSO, starting at 2 mM, with 8-points and 5-fold serial dilutions. Ketanserin and Pyrilamine were diluted with DMSO, starting at 0.2 mM, with 8-points and 5-fold serial dilution.
# (§5) 1 μl of a compounds of the present disclosure and either reference compound (Table C) were transferred to assay plates. 1 μl of 0.2 mM Ketanserin or Pyrilamine was transferred to an assay plate according to the plate map for nonspecific binding (Low control: LC). 1 μl of DMSO was transferred to an assay plate according to plate map for total binding (High control: HC).
# (§6) 100 μlof membrane stocks were dispensed into the plates, following the plate map. 100 of radio ligand was added. The plates were sealed and shaken at 300 rpm at room temperature for 1 hour. The Unifilter-96 GF/C filter plates were soaked with 50 of 0.3% PEI per well for at least 0.5 hour at room temperature.
# as §1, with “When” for “Unifilter-96 GF/C filter plates were soaked with 50 μL of 0.3% PEI per well for about 0.5 hours at room temperature. When”, “through” for “through the”, “GF/C” for “GF/C filter”, “and then” for “and”, “50 degrees.” for “50° C.”, “μl” for “μL”
# as §2
# (§7) [formula] The data was analyzed using Prism 5. The model used was “log(inhibitor) vs. response—Variable slope” to fit the data and calculate IC50. The IC50 was then converted to Ki using following equation: Ki=IC50/(1+L/Kd). L is the radioligand concentration in the reaction system; Kd is the affinity of radioligand to the receptor.
# [4] = target: 5-HT2A (Homo sapiens (Human), UniProt P28223); test: 5-HT2A binding assay ([3H]-Ketanserin, HEK293 stable cell line membranes)
# Procedure: H1 and 5-HT2A Binding Assay Protocol
# as §4, §5, §6
# as §1, with “When” for “Unifilter-96 GF/C filter plates were soaked with 50 μL of 0.3% PEI per well for about 0.5 hours at room temperature. When”, “through” for “through the”, “GF/C” for “GF/C filter”, “and then” for “and”, “50 degrees.” for “50° C.”, “μl” for “μL”
# as §2, §7
# [5] = test system: male Wistar rats; test: SCORE EEG/EMG sleep-wake monitoring: sleep continuity, number of arousals, depth of sleep; type: in vivo, rat; settings: for normalized EEG delta power (slow wave activity) during nonREM sleep / increase in sleep bout-length per hour relative to vehicle control / cumulative increase in Total Sleep Time (NREM+REM sleep) relative to baseline: CT-18, male Wistar rats; for reductions in the number of transitions from sleep to wake per hour relative to controls: CT-5, male Wistar rats; for cumulative increase in Total Sleep Time (NREM+REM sleep) relative to baseline: 30 hours post-treatment
# Procedure: Example 30. Experimental Details and Methods for Determining Sleep Continuity, Number of Arousals, and Depth of Sleep
# Treatment detail plots (see, e.g., FIGS. 1-10) depict pre- and post-treatment time series plot ±30 hours before and after treatment at CT-18 (6-hours after lights-off) or pre- and post-treatment time series plots 29 hr before and 31 hr after treatments at CT-5 (5-hours after lights-on). Treatment occurred at the beginning of the hour marked by a triangle on the abscissa of the plot. Variables were computed in hourly bins.
# All data were plotted as group mean±SEM (see, e.g., FIGS. 1-10). The gray shaded area encompasses the vehicle treatment mean±SEM. Along the x-axis, time of treatment is marked by a triangle unless noted otherwise. Along the x-axis, light/dark bars indicate lights on/off.
# Adult, male Wistar rats (approximately 270 g at time of surgery, Charles River Laboratories) were administered dexmedetomidine 25 μg/kg and anesthetized (2% isoflourane in 95/5 oxygen, to effect) and surgically prepared with a cranial implant that permitted chronic electro-encephalogram (EEG) and electromyogram (EMG) recording. Body temperature and locomotor activity were monitored via a miniature transmitter (Minimitter Series PDT4000 E-Mitter, Bend, Oreg.) surgically placed in the abdomen during the same anesthetic event when the cranial portion was implanted. The cranial implant consisted of miniature stainless steel screws (2 frontal [+3.9 AP from bregma, 2.0 ML], 2 occipital [−6.4 AP, 5.5 ML], and 1 ground placed sagittaly and posterior to lambda) for EEG recording. Two Teflon-coated multi-strand stainless steel wires were positioned under the nuchal trapezoid muscles for EMG recording. All leads were soldered to a miniature connector (Omnetics, Minneapolis, Minn.) and gas sterilized with ethylene oxide prior to surgery. The implant assembly was affixed to the skull by the combination of the EEG recording screws, cyanoacrylate applied between the hermetically sealed implant connector and skull, and a UV-curing dental acrylic. An analgesic (meloxicam 1 mg/kg IP) was administered 1 day prior to surgery and daily for 2 days post-surgery. Neosporin with lidocaine was applied topically to the peri-implant margin. At least three weeks were allowed for surgical recovery prior to any data collection.
# Rats were housed individually within specially modified Innovive® cages equipped with a custom-built ultra-low-torque slip-ring commutator and a customized Innovive® polycarbonate cage-top. These cages were located on shelves of a modified stainless steel animal rack that was pre-wired for physiological and behavioral data collection. Food and water were available ad libitum and the ambient temperature was 22±1° C. A 24-hr light-dark cycle (LD 12:12) was maintained throughout the study using LED lighting strips. Light intensity averaged 35 lux at mid-level inside the cage. Relative humidity averaged 50% approximately. Animals were undisturbed for two days before and after each treatment.
# Sleep and wakefulness were determined using SCORE™—a Linux and Windows-10 real-time computer-based sleep-wake and physiological monitoring system. Validation of the SCORE™ sleep stage identification algorithm in rodents and the system's utility in pre-clinical drug discovery and evaluation have been previously described (Edgar et al. Psychopharmacology 1991, 105, 374; Gilmour et al., Neuropharmacology 2012, 64, 224; McCarthy et al., 2016, Neuropharmacology 108, 415; Olive et al., J. Pharmacology &Experimental Therapeutics 1998 285, 1073; Phillips et al, Neuropharmacology 2012, 62, 1359; Seidel et al. J Pharmacology &Experimental Therapeutics 1995, 275, 263; Van Gelder et al. Sleep 1991, 14, 48). […]
# [6] = target: D2 (Homo sapiens (Human), UniProt P14416); test: D2 binding assay ([3H] 7-OH-DPAT, HEK293 D2L membranes); settings: numeric values
# Procedure: D2 Binding Assay Protocol
# The testing compounds were diluted with DMSO, starting at 2 mM, with 8-points and 5-fold serial dilutions. droperidol was diluted with DMSO, starting at 0.2 mM, with 8-points and 4-fold serial dilutions.
# 1 μL of a compound of the present disclosure and the reference compound (Table O) was transferred to an assay plate. 1 μL of droperidol was transferred to an assay plate according to the plate map for nonspecific binding (Low control: LC). 1 μL of DMSO was transferred to an assay plate according to the plate map for total binding (High control: HC). Following a plate map, 100 μL of the membrane stock solutions and radio ligand were added into the plate. The plates were sealed and shaken with 300 rpm.
# as §1, with “the GF/B” for “the GF/C”
# ^3H trapped on filters were counted using Perkin Elmer MicroBeta2 Reader. Inhibition constants were calculated using the following equation: […]
# The data was analyzed using Prism 5. The model used was “log(inhibitor) vs. response—Variable slope” to fit the data and calculate IC50. The IC50 was then converted to Ki using the following equation: Ki=IC50/(1+L/Kd), wherein L is the radioligand concentration in the reaction system; Kd is the affinity of radioligand to the receptor. As shown in Table Q Compound No. 7 has a lower affinity for D2 when compared to Compounds A-2, A-3, A-4, and A-5.
# Sequence of H1 (P35367 whole entry): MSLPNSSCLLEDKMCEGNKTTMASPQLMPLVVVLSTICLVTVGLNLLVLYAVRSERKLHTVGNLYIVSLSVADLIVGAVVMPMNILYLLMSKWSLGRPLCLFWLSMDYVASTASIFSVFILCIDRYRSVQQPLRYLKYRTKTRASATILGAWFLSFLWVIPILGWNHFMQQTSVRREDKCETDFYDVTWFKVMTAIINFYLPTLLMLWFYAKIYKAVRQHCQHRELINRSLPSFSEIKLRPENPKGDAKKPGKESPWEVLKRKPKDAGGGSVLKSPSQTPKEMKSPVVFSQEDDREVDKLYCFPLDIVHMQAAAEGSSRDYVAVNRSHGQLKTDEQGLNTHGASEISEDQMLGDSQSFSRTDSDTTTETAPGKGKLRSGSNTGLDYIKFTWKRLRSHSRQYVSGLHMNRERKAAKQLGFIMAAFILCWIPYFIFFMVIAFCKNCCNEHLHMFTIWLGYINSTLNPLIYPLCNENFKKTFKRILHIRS
# Sequence of 5-HT2A (P28223 whole entry, species assumed): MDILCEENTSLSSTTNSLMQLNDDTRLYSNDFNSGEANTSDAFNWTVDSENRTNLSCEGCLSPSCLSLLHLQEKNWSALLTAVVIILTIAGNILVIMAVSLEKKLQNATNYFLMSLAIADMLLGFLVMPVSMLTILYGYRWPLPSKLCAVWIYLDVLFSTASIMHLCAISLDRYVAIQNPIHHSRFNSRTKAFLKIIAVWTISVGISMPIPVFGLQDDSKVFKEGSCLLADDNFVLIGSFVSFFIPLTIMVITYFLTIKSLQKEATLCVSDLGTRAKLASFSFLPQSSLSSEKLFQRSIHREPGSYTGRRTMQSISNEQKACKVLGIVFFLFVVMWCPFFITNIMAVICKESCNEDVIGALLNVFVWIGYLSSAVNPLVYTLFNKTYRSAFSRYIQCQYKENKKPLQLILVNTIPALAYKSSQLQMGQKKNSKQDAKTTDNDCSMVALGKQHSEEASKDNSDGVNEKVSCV
# Sequence of 5-HT2C (P28335 33-458): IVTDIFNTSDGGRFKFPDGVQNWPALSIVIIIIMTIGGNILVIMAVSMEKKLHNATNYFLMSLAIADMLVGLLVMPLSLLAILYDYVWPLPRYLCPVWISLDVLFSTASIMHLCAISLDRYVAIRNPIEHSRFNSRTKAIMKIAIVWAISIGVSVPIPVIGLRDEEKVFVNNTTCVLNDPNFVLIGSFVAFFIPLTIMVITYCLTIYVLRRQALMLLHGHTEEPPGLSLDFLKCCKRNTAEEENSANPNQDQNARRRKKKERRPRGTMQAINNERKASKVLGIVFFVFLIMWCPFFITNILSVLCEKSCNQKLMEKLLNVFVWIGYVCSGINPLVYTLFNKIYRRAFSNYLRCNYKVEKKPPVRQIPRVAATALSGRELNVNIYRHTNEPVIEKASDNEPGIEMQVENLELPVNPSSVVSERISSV
# Sequence of D2 (P14416 whole entry): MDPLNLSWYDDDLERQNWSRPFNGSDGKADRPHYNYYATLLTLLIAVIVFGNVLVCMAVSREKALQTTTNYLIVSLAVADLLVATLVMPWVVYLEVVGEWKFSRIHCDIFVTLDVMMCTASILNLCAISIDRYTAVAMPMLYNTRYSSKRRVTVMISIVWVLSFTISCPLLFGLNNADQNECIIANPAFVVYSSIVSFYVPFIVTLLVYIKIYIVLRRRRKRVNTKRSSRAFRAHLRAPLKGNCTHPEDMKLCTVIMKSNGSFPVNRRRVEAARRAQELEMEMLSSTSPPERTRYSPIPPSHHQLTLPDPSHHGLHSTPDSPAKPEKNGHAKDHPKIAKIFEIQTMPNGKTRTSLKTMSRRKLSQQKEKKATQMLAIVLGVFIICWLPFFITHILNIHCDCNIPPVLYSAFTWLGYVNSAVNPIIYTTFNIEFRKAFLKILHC
smiles,measurement,setting,value
"CC(C)(CN1CCN(C2=Nc3ccccc3Cc3ccccc32)CC1)C(=O)O [Compound No. 8, 3-(4-(11H-dibenzo[b,e]azepin-6-yl)piperazin-1-yl)-2,2-dimethylpropanoic acid]",Ki,"[1]; Table L, class symbols",> 500 nM
same,"T1/2 (h), projected human half-life",[2],2 to 4 h
same,"CL (mL/min/kg), projected human clearance",[2],1.8 mL/min/kg
same,Ki,"[3]; Table E, class symbols",25 to 50 nM
same,Ki,[3]; numeric values,46 nM
same,Ki,"[4]; Table F, class symbols",> 50 nM
same,Ki,[4]; numeric values,~87 nM and 87 nM
same,normalized EEG delta power (slow wave activity) during nonREM sleep,[5]; 3 mg/kg PO,increases in EEG slow wave activity in nonREM sleep
same,reductions in the number of transitions from sleep to wake per hour relative to controls,[5]; 10 mg/kg PO,up to 50%
same,increase in sleep bout-length per hour relative to vehicle control,[5]; 10 mg/kg PO,approximately 4 fold
same,cumulative increase in Total Sleep Time (NREM+REM sleep) relative to baseline,"[5]; 30 mg/kg PO, listed as Compound 8",70 min
same,cumulative increase in Total Sleep Time (NREM+REM sleep) relative to baseline,"[5]; 30 mg/kg PO, listed as compound 8",approximately 70 minute
"Cc1ccc2c(c1)Oc1ccc(C)cc1C(N1CCN(CC(C)(C)C(=O)O)CC1)=N2 [A-3, 3-(4-(2,7-dimethyldibenzo[b,f][1,4]oxazepin-11-yl)piperazin-1-yl)-2,2-dimethylpropanoic acid, reference compound]",Ki,[6],152 nM
same,Ki,[1]; numeric values,125 nM
"Cc1ccc2c(c1)Oc1cc(F)ccc1N=C2N1CCN(CC(C)(C)C(=O)O)CC1 [Compound No. 6, 3-(4-(7-fluoro-3-methyldibenzo[b,f][1,4]oxazepin-11-yl)piperazin-1-yl)-2,2-dimethylpropanoic acid]",Ki,"[1]; Table L, class symbols",> 500 nM
same,"T1/2 (h), projected human half-life",[2],12 to 25 h
same,"CL (mL/min/kg), projected human clearance",[2],0.3 mL/min/kg
same,Ki,"[3]; Table E, class symbols",1 to 25 nM
same,Ki,"[4]; Table F, class symbols",1 to 25 nM
"CC(C)(CN1CCN(C2=Nc3ccccc3Oc3ccccc32)CC1)C(=O)O [A-5, 3-(4-(dibenzo[b,f][1,4]oxazepin-11-yl)piperazin-1-yl)-2,2-dimethylpropanoic acid, reference compound]",Ki,[6],2870 nM
same,Ki,[1]; numeric values,680 nM
"Cc1ccc2c(c1)N=C(N1CCN(CC(C)(C)C(=O)O)CC1)c1cc(C)ccc1O2 [A-2, 3-(4-(2,8-dimethyldibenzo[b,f][1,4]oxazepin-11-yl)piperazin-1-yl)-2,2-dimethylpropanoic acid, reference compound]",Ki,[6],60 nM
same,Ki,[1]; numeric values,265 nM
"Cc1ccc2c(c1)Oc1cc(C(F)F)ccc1C(N1CCN(CC(C)(C)C(=O)O)CC1)=N2 [Compound No. 15, 3-(4-(3-(difluoromethyl)-7-methyldibenzo[b,f][1,4]oxazepin-11-yl)piperazin-1-yl)-2,2-dimethylpropanoic acid]",Ki,"[3]; Table E, class symbols",> 50 nM
same,Ki,"[4]; Table F, class symbols",1 to 25 nM
same,reductions in the number of transitions from sleep to wake per hour relative to controls,[5]; 30 mg/kg PO,approximately 30%
same,increase in sleep bout-length per hour relative to vehicle control,[5]; 30 mg/kg PO,approximately 3 fold
same,normalized EEG delta power (slow wave activity) during nonREM sleep,[5]; 30 mg/kg PO,increases in EEG slow wave activity in nonREM sleep
"CC(C)(CN1CCN(C2=Nc3ccccc3Oc3cc(C(F)F)ccc32)CC1)C(=O)O [Compound No. 36, 3-(4-(3-(difluoromethyl)dibenzo[b,f][1,4]oxazepin-11-yl)piperazin-1-yl)-2,2-dimethylpropanoic acid]","T1/2 (h), projected human half-life",[2],14 to 50 h
same,"CL (mL/min/kg), projected human clearance",[2],0.4 mL/min/kg
"CC(C)(CN1CCN(C2=Nc3ccccc3Cc3cc(F)ccc32)CC1)C(=O)O [Compound No. 37, 3-(4-(9-fluoro-11H-dibenzo[b,e]azepin-6-yl)piperazin-1-yl)-2,2-dimethylpropanoic acid]",Ki,"[1]; Table L, class symbols",> 500 nM
same,Ki,"[3]; Table E, class symbols",> 50 nM
same,Ki,"[4]; Table F, class symbols",> 50 nM
